We go through 1 compound from patent US20080038220A1 (LABORATOIRES BESINS INTERNATIONAL, priority 2004, published 2008).

Converted amounts (≈) assume the structure as drawn. Where two headings read alike, the source gives them in different places.

The nature of data set [1]: Testosterone solubility by the increment method. The format is physicochemical. Particulars: thermodynamic from solid. The method, then: A known amount of solvent (2 mL) is stirred at 37° C. in a closed Erlenmeyer.
Data set [2] concerns sex hormone binding globulin, albumin. As to conditions: cited from earlier work.
Data set [3] deals with T1, sex hormone binding globulin, albumin (Homo sapiens, UniProt P04278).
T1 sequence (P04278 30-402): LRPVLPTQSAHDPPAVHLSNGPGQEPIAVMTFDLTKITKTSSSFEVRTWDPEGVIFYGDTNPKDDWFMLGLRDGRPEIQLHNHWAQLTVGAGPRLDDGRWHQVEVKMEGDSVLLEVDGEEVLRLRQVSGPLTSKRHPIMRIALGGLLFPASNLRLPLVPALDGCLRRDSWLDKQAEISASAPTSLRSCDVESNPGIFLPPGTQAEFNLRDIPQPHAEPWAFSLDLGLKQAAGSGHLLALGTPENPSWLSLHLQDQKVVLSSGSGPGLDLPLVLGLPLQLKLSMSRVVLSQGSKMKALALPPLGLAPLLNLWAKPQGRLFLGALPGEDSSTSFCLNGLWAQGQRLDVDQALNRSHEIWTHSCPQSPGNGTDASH
Particulars: cited from earlier work.

Data set [4] has as its target sex hormone binding globulin, albumin (Homo sapiens, UniProt P02768). Particulars: cited from earlier work.

sex hormone binding globulin, albumin (Homo sapiens, UniProt P02768), sequence (P02768 25-609): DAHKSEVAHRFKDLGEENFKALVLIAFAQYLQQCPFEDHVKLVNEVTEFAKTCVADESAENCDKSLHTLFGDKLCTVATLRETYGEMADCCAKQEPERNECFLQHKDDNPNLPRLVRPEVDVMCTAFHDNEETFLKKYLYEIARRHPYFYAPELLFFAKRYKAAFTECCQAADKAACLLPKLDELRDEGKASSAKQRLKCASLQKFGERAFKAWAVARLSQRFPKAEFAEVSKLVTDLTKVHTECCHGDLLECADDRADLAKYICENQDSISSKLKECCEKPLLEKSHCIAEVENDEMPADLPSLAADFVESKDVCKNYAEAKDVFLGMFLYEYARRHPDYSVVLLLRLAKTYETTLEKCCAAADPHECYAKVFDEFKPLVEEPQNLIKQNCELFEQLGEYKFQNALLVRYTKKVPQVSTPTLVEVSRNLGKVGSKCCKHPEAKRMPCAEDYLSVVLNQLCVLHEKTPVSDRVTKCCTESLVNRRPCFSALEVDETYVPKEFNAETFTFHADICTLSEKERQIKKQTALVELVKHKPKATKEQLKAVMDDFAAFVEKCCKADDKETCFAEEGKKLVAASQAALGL

As a reminder, the solubility is the concentration that dissolves in the medium under given conditions. `C[C@]12CC[C@H]3[C@@H](CCC4=CC(=O)CC[C@@]43C)[C@@H]1CC[C@@H]2O` [Testosterone]: the solubility is 30 mg/mL (≈ 104 mM) in data set [1] (aqueous with cosolvent or surfactant or cyclodextrin, water/ethanol mixture, 95% ethanol (v/v) 63/37, 37° C.); 52 mg/mL (≈ 180 mM) in data set [1] (aqueous with cosolvent or surfactant or cyclodextrin, water/ethanol mixture, 95% ethanol (v/v) 74/26, 37° C.); 120 mg/mL (≈ 416 mM) in data set [1] (aqueous with cosolvent or surfactant or cyclodextrin, water/ethanol mixture, 95% ethanol (v/v) 84/16, 37° C.); 160 mg/mL (≈ 555 mM) in data set [1] (aqueous with cosolvent or surfactant or cyclodextrin, water/ethanol mixture, 95% ethanol (v/v) 86/14, 37° C.); 66 mg/mL (≈ 229 mM) in data set [1] (oleic acid (OA) 100%, oil or lipid, solvent OA (100%), 37° C.); 140 mg/mL (≈ 485 mM) in data set [1] (organic solvent or mixture, solvent Transcutol (100%), 37° C.). Moreover, the solubility is 340 mg/mL (≈ 1180 mM) in data set [1] (organic solvent or mixture, water/ethanol mixture, 95% ethanol (v/v) 100/0, 37° C.); 86 mg/mL (≈ 298 mM) in data set [1] (propylene glycol (PG) 100%, organic solvent or mixture, solvent PG (100%), 37° C.); 18 mg/mL (≈ 62.4 mM) in data set [1] (propylene glycol dipelargonate (PGDP) 100%, oil or lipid, solvent PGDP (100%), 37° C.); 79 mg/mL (≈ 274 mM) in data set [1] (propylene glycol/oleic acid (PG/OA) 50/50, organic solvent or mixture, solvent PG/OA (50/50), 37° C.). For the same compound, the “bound to protein in the blood” value in data set [2] (men) and in data set [2] (women) was 98% throughout. Besides, the figures for the “share of the binding to sex hormone binding globulin” value in data set [3] (men) and in data set [3] (women) were “approximately 40%” and “approximately 66%”, respectively. The results for the “share bound weakly to albumin” value in data set [4] (men) and in data set [4] (women) were 60% and 34%, respectively.
